This assay has as its system BDF1 mice, P388 leukemia ip, median survival T/C. The experiment in a line: NCI In Vivo Anticancer Drug Screen. Data for tumor model P388 Leukemia (intraperitoneal) in B6D2F1 (BDF1) mice. The note with it: endpoint: median survival time, higher = longer survival. In a few lines: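 Compound-treated tumour-bearing mice were compared with vehicle-treated controls. Survival was recorded, and the value is the treated-group measurement divided by the control-group measurement (T/C).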

[1] abbreviates: dose: 25.0 mg/kg/injection, schedule: Q01DX009 (ip), vehicle: saline with Tween-80.
The mark [2] stands for this setting: dose: 50.0 mg/kg/injection, schedule: Q01DX009 (ip), vehicle: saline with Tween-80.
[3] abbreviates: dose: 12.5 mg/kg/injection, schedule: Q04DX003 (ip), vehicle: saline with Tween-80.
Setting [4] is: dose: 25.0 mg/kg/injection, schedule: Q04DX003 (ip), vehicle: saline with Tween-80.
[5] abbreviates: dose: 50.0 mg/kg/injection, schedule: Q04DX003 (ip), vehicle: saline with Tween-80.
The mark [6] stands for this setting: dose: 100.0 mg/kg/injection, schedule: Q01DX009 (ip), vehicle: saline with Tween-80.
The mark [7] stands for this setting: dose: 200.0 mg/kg/injection, schedule: Q01DX009 (ip), vehicle: saline with Tween-80.
[8] abbreviates: dose: 25.0 mg/kg/injection, schedule: Q01DX009 (ip), vehicle: saline.
Where [9] appears, read: dose: 50.0 mg/kg/injection, schedule: Q01DX009 (ip), vehicle: saline.
[10] abbreviates: dose: 100.0 mg/kg/injection, schedule: Q01DX009 (ip), vehicle: saline.
Setting [11] is: dose: 200.0 mg/kg/injection, schedule: Q01DX009 (ip), vehicle: saline.
Where [12] appears, read: dose: 100.0 mg/kg/injection, schedule: Q04DX003 (ip), vehicle: saline with Tween-80.
Where [13] appears, read: dose: 200.0 mg/kg/injection, schedule: Q04DX003 (ip), vehicle: saline with Tween-80.

We go through 23 compounds from PubChem BioAssay AID328 (DTP/NCI, 2004).

Values joined by “and” are separate entries in the source; they are usually repeats but may differ in a detail not shown here. Equal entries are not always repeated. Inconclusive results and toxic doses are left out.

Take `COC(=O)C12CCc3cc(OC)ccc3C1=CC(=O)C2` (stereo unspecified): the T/C by setting is: (dose: 100.0 mg/kg/injection, schedule: Q04DX003 (ip), vehicle: saline sonified) 100 % of control; (dose: 200.0 mg/kg/injection, schedule: Q04DX003 (ip), vehicle: saline sonified) 95 % of control.

For the compound `CS(=O)(=O)OCCN(CCOS(C)(=O)=O)c1ccccc1`, the T/C is 150 % of control (dose: 16.5 mg/kg/injection, schedule: Q04DX003 (ip), vehicle: saline with Tween-80); 113 % of control (dose: 16.5 mg/kg/injection, schedule: Q04DX003 (ip), vehicle: saline); 222 % of control (dose: 37.5 mg/kg/injection, schedule: Q04DX003 (ip), vehicle: saline with Tween-80).

Regarding `COc1ccc(NC(=O)Oc2cc(C)cc(C)c2)cc1`, the T/C reads like this: (dose: 100.0 mg/kg/injection, schedule: Q04DX003 (ip), vehicle: Klucel (hydroxypropylcellulose) (HPC)) 100 % of control; (dose: 200.0 mg/kg/injection, schedule: Q04DX003 (ip), vehicle: Klucel (hydroxypropylcellulose) (HPC)) 95 % of control; (dose: 400.0 mg/kg/injection, schedule: Q04DX003 (ip), vehicle: Klucel (hydroxypropylcellulose) (HPC)) 100 % of control.

As for `CCCC(NC(N)=O)C(CCC)NC(N)=O` (stereo unspecified), the T/C is, setting by setting: (dose: 12.5 mg/kg/injection, schedule: Q01DX009 (ip), vehicle: saline with Tween-80) 102 % of control; under setting [1], 100 % of control; under setting [2], 89 % of control.

Turning to `C=CC[N+](CC=C)(CC=C)CC[N+](CC=C)(CC=C)CC=C`, the T/C by setting is: (dose: 12.5 mg/kg/injection, schedule: Q01DX009 (ip), vehicle: water) 102 % of control; under setting [3], 104 % of control; (dose: 25.0 mg/kg/injection, schedule: Q01DX009 (ip), vehicle: water) 105 % of control; under setting [4], 104 % of control; (dose: 50.0 mg/kg/injection, schedule: Q01DX009 (ip), vehicle: water) 115 % of control; under setting [5], 101 % of control.

Regarding `FC(F)(F)c1cccc(C(c2ccccc2)(c2ccccc2)n2cncn2)c1`, the T/C is, setting by setting: under setting [2], 114 % of control; under setting [6], 109 % of control; under setting [7], 100 % of control.

In the case of `CC1(c2ccc(N(CCCl)CCCl)cc2)NC(=O)NC1=O` (stereo unspecified), the T/C runs as follows: (dose: 6.25 mg/kg/injection, schedule: Q01DX009 (ip), vehicle: Klucel (hydroxypropylcellulose) (HPC)) 121 % of control; (dose: 12.5 mg/kg/injection, schedule: Q01DX009 (ip), vehicle: Klucel (hydroxypropylcellulose) (HPC)) 122 % of control; (dose: 25.0 mg/kg/injection, schedule: Q01DX009 (ip), vehicle: Klucel (hydroxypropylcellulose) (HPC)) 191 % of control; (dose: 100.0 mg/kg/injection, schedule: Q01DX009 (ip), vehicle: Klucel (hydroxypropylcellulose) (HPC)) 260 % of control.

With `CC(=O)Nc1ccc(S(=O)(=O)NNC(=O)C(=O)Nc2cccc(Cl)c2)cc1`, the T/C was 96 % of control (dose: 50.0 mg/kg/injection, schedule: Q01DX005 (ip), vehicle: saline with Tween-80); 89 % of control (dose: 100.0 mg/kg/injection, schedule: Q01DX005 (ip), vehicle: saline with Tween-80); 96 % of control (dose: 200.0 mg/kg/injection, schedule: Q01DX005 (ip), vehicle: saline with Tween-80).

Turning to `FC(F)(F)c1cc(-c2ccc(C3Nc4ccccc4-n4cccc43)o2)cc(C(F)(F)F)c1` (stereo unspecified), the T/C under setting [2] is 92 % of control, the T/C under setting [6] is 90 % of control and the T/C under setting [7] was 92 % of control.

For the compound `c1ccc(N=N/C(=N\Nc2ccccc2)SCCS/C(N=Nc2ccccc2)=N/Nc2ccccc2)cc1`, the T/C under setting [1] is 99 % of control, the T/C under setting [2] was 99 % of control and the T/C under setting [6] was 121 % of control.

Turning to `CC/C(=C\c1ccc(Cl)cc1)[N+](=O)[O-]`, the T/C (dose: 12.5 mg/kg/injection, schedule: Q01DX009 (ip), vehicle: saline) was 97 % of control; the T/C under setting [8] was 99 % of control; the T/C (dose: 25.0 mg/kg/injection, schedule: Q04DX003 (ip), vehicle: saline) was 87 % of control; the T/C under setting [9] was 99 % of control; the T/C (dose: 50.0 mg/kg/injection, schedule: Q04DX003 (ip), vehicle: saline) was 104 % of control; the T/C (dose: 100.0 mg/kg/injection, schedule: Q04DX003 (ip), vehicle: saline) is 104 % of control and 109 % of control.

Turning to `COc1ccc(-c2oc3cc(O)c(OC)c(O)c3c(=O)c2OC)cc1O`, the T/C by setting is: (dose: 10.0 mg/kg/injection, schedule: Q01DX010 (ip), vehicle: saline) 100 % of control; (dose: 20.0 mg/kg/injection, schedule: Q01DX010 (ip), vehicle: saline) 100 % of control; (dose: 40.0 mg/kg/injection, schedule: Q01DX010 (ip), vehicle: saline) 113 % of control.

With `CCCCCCCCCCCCCCOc1ccc(C=O)cc1OC`, the T/C (dose: 100.0 mg/kg/injection, schedule: Q01DX001 (ip), vehicle: Klucel (hydroxypropylcellulose) (HPC)) was 100 % of control; the T/C (dose: 200.0 mg/kg/injection, schedule: Q01DX001 (ip), vehicle: Klucel (hydroxypropylcellulose) (HPC)) was 100 % of control; the T/C (dose: 400.0 mg/kg/injection, schedule: Q01DX001 (ip), vehicle: Klucel (hydroxypropylcellulose) (HPC)) is 100 % of control.

For `CS(=O)(=O)c1nc(N)nc2nc[nH]c12`, the T/C was 104 % of control (dose: 75.0 mg/kg/injection, schedule: Q04DX003 (ip), vehicle: saline); 115 % of control under setting [10]; 100 % of control (dose: 150.0 mg/kg/injection, schedule: Q04DX003 (ip), vehicle: saline); 105 % of control under setting [11]; 109 % of control (dose: 300.0 mg/kg/injection, schedule: Q04DX003 (ip), vehicle: saline).

In the case of `CC1=CC=CC(C)(Cc2ccc(-c3ccc(CC4(C)C=CC=C(C)C4=O)cc3)cc2)C1=O` (stereo unspecified), the T/C by setting is: (dose: 25.0 mg/kg/injection, schedule: Q01DX001 (ip), vehicle: saline with Tween-80) 95 % of control; (dose: 50.0 mg/kg/injection, schedule: Q01DX001 (ip), vehicle: saline with Tween-80) 95 % of control; (dose: 100.0 mg/kg/injection, schedule: Q01DX001 (ip), vehicle: saline with Tween-80) 90 % of control.

With `CN1C(=O)C(=Cc2ccc(N(C)C)cc2)C(=O)N(C)C1=O`, the T/C was 103 % of control under setting [2], 99 % of control under setting [6] and 98 % of control under setting [7].

Consider `O=C(O)C1(O)C(Cl)(Cl)C(Cl)=C(Cl)C1(Cl)Cl`, for which the T/C under setting [8] was 118 % of control, the T/C under setting [9] was 122 % of control and the T/C under setting [10] was 118 % of control.

As to `COC(=O)c1ccc(CSc2ccccc2NC(=S)Nc2cccc(SC)c2)o1`, the T/C was 90 % of control under setting [2], 92 % of control under setting [6] and 90 % of control under setting [7].

`c1cc2c3c(c1)/C(=N\N=C1/CCN4CCCc5cccc1c54)CCN3CCC2`: the T/C was 104 % of control under setting [2]; 90 % of control under setting [5]; 104 % of control under setting [6]; 100 % of control under setting [12]; 104 % of control under setting [7]; 100 % of control under setting [13].

`CCCn1c(C)nc2cc(C(F)(F)F)cc(N)c21`: the T/C is, setting by setting: under setting [12], 103 % of control; under setting [13], 92 % of control; (dose: 400.0 mg/kg/injection, schedule: Q04DX003 (ip), vehicle: saline with Tween-80) 97 % of control.

For `CC(C)(N)CNC(C)(C)CO`, the T/C under setting [9] was 95 % of control, the T/C under setting [10] is 111 % of control and the T/C under setting [11] is 92 % of control.

For `C1CCCCCC(NC2=NCCO2)CCCCC1`, the T/C runs as follows: (dose: 3.13 mg/kg/injection, schedule: Q04DX003 (ip), vehicle: saline with Tween-80) 95 % of control; (dose: 6.25 mg/kg/injection, schedule: Q04DX003 (ip), vehicle: saline with Tween-80) 95 % of control; under setting [3], 108 % of control; under setting [4], 90 % of control; under setting [5], 90 % of control.

For `CC1(C)OC2C(CO)OC(n3cnc4c(N)ncnc43)C2O1` (stereo unspecified), the T/C is 100 % of control (dose: 75.0 mg/kg/injection, schedule: Q04DX003 (ip), vehicle: Klucel (hydroxypropylcellulose) (HPC)) and 100 % of control (dose: 300.0 mg/kg/injection, schedule: Q04DX003 (ip), vehicle: Klucel (hydroxypropylcellulose) (HPC)).
